The target in assay [1] is T1, human Edg7 receptor (Homo sapiens, UniProt Q9UBY5).
T1 sequence (Q9UBY5 1-353): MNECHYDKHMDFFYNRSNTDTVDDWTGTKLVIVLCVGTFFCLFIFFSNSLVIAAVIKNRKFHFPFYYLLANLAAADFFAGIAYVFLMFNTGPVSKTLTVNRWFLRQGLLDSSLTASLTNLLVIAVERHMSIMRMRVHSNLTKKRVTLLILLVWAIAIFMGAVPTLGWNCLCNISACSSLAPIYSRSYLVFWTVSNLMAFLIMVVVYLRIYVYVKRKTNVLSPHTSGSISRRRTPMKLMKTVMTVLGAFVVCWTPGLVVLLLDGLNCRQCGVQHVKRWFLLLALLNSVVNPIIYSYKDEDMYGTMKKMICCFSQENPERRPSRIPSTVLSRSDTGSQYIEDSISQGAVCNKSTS
Put plainly: Intracellular calcium mobilization (FLIPR, fluo-3) in Edg7-transfected CHO cells. Type of assay: cell-based. On the set-up: expressed in transfected cells; host or cells: CHO (transient, electroporation). To be noted: for activity against Edg7: data not shown. As for the experimental part: (§1) Cells expressing the receptor of interest are plated into clear, flat-bottom, black-wall 96-well plates (Costar) at a density of 80,000-150,000 cells per well and allowed to incubate for 48 hr at 5% CO2, 37° C. The growth medium is aspirated and 100 μl of loading medium containing fluo-3 dye is added to each well. The loading medium contains: Hank's BSS (without phenol red)(Gibco), 20 mM HEPES (Sigma), 0.1 or 1% BSA (Sigma), dye/pluronic acid mixture (e.g. 1 mM Flou-3, AM (Molecular Probes) and 10% pluronic acid (Molecular Probes) mixed immediately before use), and 2.5 mM probenecid (Sigma)(prepared fresh) The cells are allowed to incubate for about 1 hour at 5% CO2, 37° C.
During the dye loading incubation the compound plate is prepared. The compounds are diluted in wash buffer (Hank's BSS (without phenol red), 20 mM HEPES, 2.5 mM probenecid) to a 4×final concentration and aliquoted into a clear v-bottom plate (Nunc). Following the incubation the cells are washed to remove the excess dye. A Denley plate washer is used to gently wash the cells 4 times and leave a 100 μl final volume of wash buffer in each well. The cell plate is placed in the center tray and the compound plate is placed in the right tray of the FLIPR. The FLIPR software is setup for the experiment, the experiment is run and the data are collected. The data are then analyzed using an excel spreadsheet program.
For orientation: Calcium flux is commonly read through the fluorescence of an indicator in the cells.

Assay [2] has as its system mock DNA (empty vector)-transfected CHO cells. Put plainly: Intracellular calcium mobilization (FLIPR, fluo-3) in mock DNA-transfected CHO cells. Type of assay: cell-based, Chinese hamster. The following applies: mean±SEM, n=6, read-out: EC50 of increase in intracellular calcium.
Source text: In another method, the measurement of intracellular calcium can also be performed on a 96-well (or higher) format and with alternative calcium-sensitive indicators, preferred examples of these are: aequorin, Fluo-3, Fluo-4, Fluo-5, Calcium Green-1, Oregon Green, and 488 BAPTA. After activation of the receptors with agonist ligands the emission elicited by the change of intracellular calcium concentration can be measured by a luminometer, or a fluorescence imager; a preferred example of this is the fluorescence imager plate reader (FLIPR).
as §1
During the dye loading incubation the compound plate is prepared. […] The data are then analyzed using an excel spreadsheet program.

The target of assay [3] is T1, human Edg7 receptor. Put plainly: Inositol phosphate (IP) release in Edg7-transfected Cos-7, HEK293 and CHO cells. The following applies: for ability to activate Edg7 (inositol phosphate formation): Cos-7 cells transfected with Edg7, varying concentrations. On the set-up: expressed in transfected cells; host or cells: Cos-7, HEK293, CHO (transient, electroporation). It is filed as cell-based. Here is the method: A typical protocol for the electroporation method as applied to Cos-7 cells is described as follows. Cells to be used for transfection are split 24 hours prior to the transfection to provide flasks which are subconfluent at the time of transfection. The cells are harvested by trypsinization resuspended in their growth media and counted. 5×10^6 cells are suspended in 300 μl of DMEM and placed into an electroporation cuvette. 8 μg of receptor DNA plus 8 μg of any additional DNA needed (e.g. G protein expression vector, reporter construct, antibiotic resistance marker, mock vector, etc.) is added to the cell suspension, the cuvette is placed into a BioRad Gene Pulser and subjected to an electrical pulse (Gene Pulser settings: 0.25 kV voltage, 950 μF capacitance). Following the pulse, 800 μl of complete DMEM is added to each cuvette and the suspension transferred to a sterile tube. Complete medium is added to each tube to bring the final cell concentration to 1×10^5 cells/100 μl. The cells are then plated as needed depending upon the type of assay to be performed. Edg7 receptor-mediated activation of the inositol phosphate (IP) second messenger pathways was assessed by radiometric measurement of IP products. In a 96 well microplate format assay, cells are plated at a density of 70,000 cells per well and allowed to incubate for 24 hours. The cells are then labeled with 0.5 μCi [^3H]myo-inositol overnight at 37° C., 5% CO2. Immediately before the assay, the medium is removed and replaced with 90 μL of PBS containing 10 mM LiCl. The plates are then incubated for 15 min at 37° C., 5% CO2. Following the incubation, the cells are challenged with agonist (10 μl/well; 10×concentration) for 30 min at 37° C., 5% CO2. The challenge is terminated by the addition of 100 μL of 50% v/v trichloroacetic acid, followed by incubation at 4° C. for greater than 30 minutes. Total IPs are isolated from the lysate by ion exchange chromatography. Briefly, the lysed contents of the wells are transferred to a Multiscreen HV filter plate (Millipore) containing Dowex AG1-X8 (200-400 mesh, formate form). The filter plates are prepared adding 100μL of Dowex AG1-X8 suspension (50% v/v, water: resin) to each well. The filter plates are placed on a vacuum manifold to wash or elute the resin bed. Each well is first washed 2 times with 200 μl of 5 mM myo-inositol. Total [^3H]inositol phosphates are eluted with 75 μl of 1.2M ammonium formate/0.1M formic acid solution into 96-well plates. 200 μL of scintillation cocktail is added to each well, and the radioactivity is determined by liquid scintillation counting.

Assay [4] concerns mock (empty vector)-transfected Cos-7 cells. Briefly: Inositol phosphate (IP) formation in mock (empty vector)-transfected Cos-7 cells. To be noted: 1 μM final concentration, n=4. It is filed as cell-based. As for the experimental part: A typical protocol for the electroporation method as applied to Cos-7 cells is described as follows. Cells to be used for transfection are split 24 hours prior to the transfection to provide flasks which are subconfluent at the time of transfection. The cells are harvested by trypsinization resuspended in their growth media and counted. 5×10^6 cells are suspended in 300 μl of DMEM and placed into an electroporation cuvette. 8 μg of receptor DNA plus 8 μg of any additional DNA needed (e.g. G protein expression vector, reporter construct, antibiotic resistance marker, mock vector, etc.) is added to the cell suspension, the cuvette is placed into a BioRad Gene Pulser and subjected to an electrical pulse (Gene Pulser settings: 0.25 kV voltage, 950 μF capacitance). Following the pulse, 800 μl of complete DMEM is added to each cuvette and the suspension transferred to a sterile tube. Complete medium is added to each tube to bring the final cell concentration to 1×10^5 cells/100 μl. The cells are then plated as needed depending upon the type of assay to be performed. Edg7 receptor-mediated activation of the inositol phosphate (IP) second messenger pathways was assessed by radiometric measurement of IP products. […] 200 μL of scintillation cocktail is added to each well, and the radioactivity is determined by liquid scintillation counting.

The target of assay [5] is T1, human Edg7 receptor. Put plainly: Calcium-activated Cl- currents in Xenopus oocytes injected with Edg7 mRNA. Type of assay: cell-based. Here is the method:
Oocytes are harvested from Xenopus laevis and injected with mRNA transcripts as previously described (Quick and Lester, 1994; Smith et al.,1997). Edg7 receptor RNA transcript is synthesized using the T7 polymerase (“Message Machine,” Ambion) from linearized plasmids or PCR products containing the complete coding region of the gene. Oocytes are injected with 1-50 ng synthetic receptor RNA and incubated for 3-8 days at 17° C. Currents are recorded under dual electrode voltage clamp (Axon Instruments Inc.) with 3 M KCl-filled glass microelectrodes having resistances of 1-2 Mohm. Unless otherwise specified, oocytes are voltage clamped at a holding potential of −80 mV. During recordings, oocytes are bathed in continuously flowing (1-3 ml/min) medium containing 96 mM NaCl, 2 mM KCl, 1.8 MM CaCl2, 1 mM MgCl2, and 5 mM HEPES, pH 7.5 (ND96). Drugs are applied either by local perfusion from a 10 μl glass capillary tube fixed at a distance of 0.5 mm from the oocyte, or by switching from a series of gravity fed perfusion lines.
Activation of the phospholipase C (PLC) pathway is assayed by applying a test compound in ND96 solution to oocytes previously injected with mRNA for the Edg7 receptor and observing inward currents at a holding potential of approximately −80 mV. The appearance of currents that reverse at −25 mV and display other properties of the Ca^++-activated Cl^− channel is indicative of receptor-activation of PLC and release of IP3 and intracellular Ca^++.
Involvement of the Gi/o class of G-proteins in GPCR-stimulated Ca^++-activated Cl^− currents is evaluated using PTX, a toxin which inactivates Gi/o G-proteins. Oocytes are injected with 25 ng PTX/oocyte and modulation of Ca^++-activated Cl^− currents by Edg7 receptor is evaluated 2-5 h subsequently.

Assay [6] deals with LPA receptors endogenous to oocytes. Briefly: Calcium-activated Cl- currents in control (uninjected) Xenopus oocytes. It is filed as cell-based, Xenopus laevis.

A word on the EC50: it is the concentration that produces a half-maximal response.

Regarding `O=c1ccn([C@@H]2O[C@H](COP(=O)(O)OP(=O)(O)OP(=O)(O)O)[C@@H](O)[C@H]2O)c(=O)[nH]1` [UTP], the “intracellular calcium responses in Edg7- versus mock DNA-transfected cells” value on human Edg7 receptor [1] (CHO cells, n=3) was “almost identical”.
Consider `CCCCC/C=C\C/C=C\C/C=C\C/C=C\CCCC(=O)NCCO` [anandamide], for which the “activity against Edg7” value at human Edg7 receptor [1] was “inactive”.
On the same count and under the same terms, the same measure for `CCCCCCCC/C=C\CCCCCCCC(=O)O` [oleic acid]: “inactive”.
`CCCCCCCC/C=C\CCCCCCCC(=O)OCC(O)COP(=O)(O)O` (centres unmarked) [oleoyl LPA, oleoyl lysophosphatidic acid]: the EC50 in assay [2] worked out at 347 ± 54 nM. For the same compound, the “peak intracellular calcium response in Edg7-transfected cells as compared to mock DNA-transfected cells” value on human Edg7 receptor [1] (CHO cells, 10 μM) is “approximately 3 fold”. Besides, the “average increase in IP production” value on human Edg7 receptor [3] (Edg7-transfected Cos-7 cells, 1 μM final concentration, n=4) is given as 3 fold; in assay [4], 2 fold. For the same compound, at human Edg7 receptor [3] (all three cell lines (Cos-7, HEK 293, CHO)), the “Emax of IP response” value is 200-300%.
As to `CCCCC[C@H](O)/C=C/[C@H]1[C@H](O)CC(=O)[C@@H]1C/C=C\CCCC(=O)O` [prostaglandin E2], the “activity against Edg7” value at human Edg7 receptor [1] was “inactive”.
As for `CCCCCCCCCCCCC/C=C/[C@@H](O)[C@@H](N)COP(=O)(O)O` [sphingosine-1-phosphate], the “activation of Edg7 receptors (intracellular calcium)” value at human Edg7 receptor [1] (CHO cells, n=4) is reported as “failed to activate”. Also, the “ability to activate Edg7 (inositol phosphate formation)” value (“ability to activate Edg7” below) on human Edg7 receptor [3] is reported as “No dose-responsiveness”.
`CCCCCCCCCCCCC/C=C/[C@@H](O)[C@@H](N)COP(=O)([O-])OCC[N+](C)(C)C` [sphingosylphosphorylcholine]: the “ability to activate Edg7” value at human Edg7 receptor [3] was “No dose-responsiveness”.
As to Lysophosphatidic acid [LPA], the “concentration at which nearly maximal responses were observed” value at human Edg7 receptor [5] (Edg7-injected oocytes, Cl- current) is on record as 100 nM. Further, the “LPA response (Cl- current) after treatment with PTX” value was “substantial current remained” on human Edg7 receptor [5] (Edg7-injected oocytes, PTX 25 ng injected 2-5 h prior to recording) and “nearly abolished” in assay [6] (control oocytes, PTX 25 ng injected 2-5 h prior to recording). The Cl- current amplitude at human Edg7 receptor [5] (oocytes injected with Edg7 mRNA, oleoyl LPA 1 μM, n=5) was 1272±126 nA; in assay [6] (uninjected oocytes, batch with low endogenous LPA activity, oleoyl LPA 1 μM, n=5), 18±18 nA. For the same compound, the “inward Cl- currents, typical response” value in assay [6] (control oocytes lacking injection of foreign mRNA) was 100-1000 nA.
As for lysophosphatidylserine, the “significantly different response in Edg7-expressing cells as compared to mock DNA-transfected cells” value at human Edg7 receptor [1] (CHO cells, intracellular calcium, 10 μM) is on record as “significantly different response”.
With phosphatidic acid, the “activation of Edg7 receptors (intracellular calcium)” value on human Edg7 receptor [1] (CHO cells, n=4) is reported as “agonist”. Also, on human Edg7 receptor [1] (Edg7 receptors, CHO cells, n=4), the “increase in intracellular calcium” value is listed as “approximately 5 fold”. Also, the “ability to activate Edg7” value on human Edg7 receptor [3] is given as “partial agonist”.
phosphatidyl choline: on human Edg7 receptor [1], the “activity against Edg7” value is “inactive”.
Same read-out and setting: the entry for platelet-activating factor is “inactive”; for sphingomyelin it is “inactive”; for thromboxane B4 it is “inactive”.

For the origin of these results see patent publication US20030130493A1, “DNA encoding Edg7 receptor” (priority 1999, published 2003).
